Measurements from patent US20230220443A1, “CHARACTERIZATION OF S-ADENOSYL-L-METHIONINE-CONSUMING ENZYMES WITH 1-STEP EZ-MTASE: A UNIVERSAL COUPLED-ASSAY” (ALBERT EINSTEIN COLLEGE OF MEDICINE, priority 2017, published 2023).
“And” between values parts separate entries of the source, which are not always exact repeats. Equal values may be shown once. Read-outs that look alike come from different tables or passages of the source. One block for each compound: values may come before it.

What was measured:
[1] = cited from earlier work
GsSDMT = target: T1, GsSDMT (Galdieria sulphuraria, UniProt M2XPA0); assay: 1-Step EZ-MTase UV-based coupled assay, GsSDMT kinetics; assay type: biochemical; conditions: pH=7.80, co-substrate saturating
T1 sequence (M2XPA0 2-297): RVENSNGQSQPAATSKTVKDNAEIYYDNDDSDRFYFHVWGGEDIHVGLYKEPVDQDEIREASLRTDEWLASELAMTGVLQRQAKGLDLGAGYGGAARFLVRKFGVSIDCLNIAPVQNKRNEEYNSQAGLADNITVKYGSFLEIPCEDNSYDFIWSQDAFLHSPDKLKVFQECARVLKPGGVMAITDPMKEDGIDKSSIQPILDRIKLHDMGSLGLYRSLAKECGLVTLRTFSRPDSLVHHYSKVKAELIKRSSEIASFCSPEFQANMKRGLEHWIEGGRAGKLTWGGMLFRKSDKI
Method: Kinetic behavior for sarcosine against GsSDMT (SAM sat.)—Experiments were conducted following matching CePRMT5 protocol above. Briefly, the 100-μL mixtures from a same row contained 100 mM phosphate buffer pH=7.80, 1 mM βME, 5% glycerol, 100 μM MgCl2, 4 μM coupling deaminase TM0936, 976 nM GsSDMT and various sarcosine concentrations (0.5-12.5 mM; in the first well, sarcosine was omitted to account for background signal—natural decomposition of SAM). Reactions started upon addition of SAM (750 μM saturating final concentration), 60-μL volumes were transferred onto UV plate and absorbance was recorded. Initial rates were first corrected for background signal, and then plotted against sarcosine concentrations. Fit to the Michaelis-Menten equation provided corresponding kinetic parameters.
Kinetic behavior for SAM against GsSDMT (sarcosine sat.)—Experiments were conducted following matching CePRMT5 protocol above. Briefly, the measurements consisted of two experimental subsets: MTase reactions (both SAM and sarcosine added) and MTase blanks (SAM was added without sarcosine to account for natural SAM decomposition). The 100-μL reaction mixtures from a same row contained 100 mM phosphate buffer pH=7.80, 1 mM βME, 5% glycerol, 100 μM MgCl2, 4 μM coupling deaminase TM0936, 195 nM GsSDMT and various SAM concentrations (49.9-750.2 μM). Reactions started upon addition of either sarcosine (10 mM saturating final concentration; MTase reactions) or water (MTase blanks), 60-μL volumes were transferred onto UV plate and absorbance was recorded at 263 nm. Initial rates were first corrected for background signal, and then plotted against SAM concentrations. Fit to the Michaelis-Menten equation provided corresponding kinetic parameters.
Kinetic behavior for 8-aza-SAM against MTases (acceptor sat.)—Briefly, kinetic parameters were determined at 20° C. in a UV-Star 96-well flat bottom plate (Greiner Bio-One, #655801) by continuous monitoring of absorbance at 282 nm using a SpectraMax M5 instrument (Molecular Devices). As for SAM experiments, the measurements consisted of two experimental subsets: MTase reactions (both 8-aza-SAM and acceptor added) and MTase blanks (8-aza-SAM was added without acceptor to account for natural 8-aza-SAM decomposition). The 250-μL (60-μL) reaction mixtures from a same row contained 50 mM phosphate buffer pH=7.60 (7.80), 1 mM βME, 10% glycerol (5% glycerol, 100 μM MgCl2), 4 μM coupling deaminase TM0936, either 1.5 μM CePRMT5 or 402 nM TbPRMT7 (or 610 nM GsSDMT) and various 8-aza-SAM concentrations. […] Initial rates were first corrected for background signal, then plotted against 8-aza-SAM concentrations and fitted to the Michaelis-Menten equation to yield corresponding kinetic parameters.

[2] = pKa from pH-dependence of differential extinction coefficient (UV); assay type: physicochemical
Method: Nucleoside concentrations (stock solutions) were determined using known extinction coefficients for: adenosine, 259(ε/M^−1 cm^−1 15,400) and 8-aza-adenosine, 277(e/M-1 cm^−1 17,830). The deaminase reactions using these various substrates were performed in quartz cuvettes (1-cm light path; 3-mL reaction volume) and absorbance measurements were carried out with a NanoDrop 2000c (scan mode: 220-320 nm with multi scans superimposed; 37° C. and continuous stirring). Briefly, the 3-mL reactions contained 50 mM buffer (acetate: pH 4.00-5.00; MES: pH 5.00-6.50; phosphate: pH 5.80-8.00; TRIS: pH 7.50-8.50; CHES: pH 8.90-9.90), 1 mM βME and 10% glycerol. Five different concentrations of either adenosine or 8-aza-adenosine substrates were used (10, 20, 30, 40 and 50 μM). Mixtures were blanked before acquisition and reactions started upon addition of deaminase (TM0936, 2 μL of 240.5 μM enzyme stock). Over the course of the deaminase reaction (e.g. adenosine→inosine), optimum wavelengths at which the highest absorbance shift is observed were selected (i.e. adenosine reaction, λ=[…]; 8-aza-adenosine reaction, λ1=282 nm and λ2=292 nm). Scans were recorded until the absorbance at these monitored wavelengths reached a stable value (82). For each pH condition, the end-point absorbance shifts were plotted against initial nucleoside concentrations and fitted to a linear regression: each slope is a differential extinction coefficient (Δε) for deamination of the specific nucleoside substrate. Furthermore, the pH-dependence of differential extinction coefficient (Ae) for this deaminase reaction was obtained by plotting the pairs (Δε; pH) and fitting these to the following supplementary Eq. 2:
where ΔεHIGH pH and ΔεLOW pH are the extinction coefficient measured at optimum wavelengths (i.e. λ for adenosine and λ1 or λ2 for 8-aza-adenosine) for the deaminase reaction at high and low pH, respectively, and […] is the logarithm of acid dissociation constant for either inosine or 8-aza-inosine.

deaminase TM0936 = target: T2, deaminase TM0936 (Thermotoga maritima, UniProt Q9X034); assay: Deamination by coupling enzyme TM0936; assay type: biochemical
T2 construct: polyhistidine; made in house; host or cells: bacteria
T2 sequence (Q9X034 1-406): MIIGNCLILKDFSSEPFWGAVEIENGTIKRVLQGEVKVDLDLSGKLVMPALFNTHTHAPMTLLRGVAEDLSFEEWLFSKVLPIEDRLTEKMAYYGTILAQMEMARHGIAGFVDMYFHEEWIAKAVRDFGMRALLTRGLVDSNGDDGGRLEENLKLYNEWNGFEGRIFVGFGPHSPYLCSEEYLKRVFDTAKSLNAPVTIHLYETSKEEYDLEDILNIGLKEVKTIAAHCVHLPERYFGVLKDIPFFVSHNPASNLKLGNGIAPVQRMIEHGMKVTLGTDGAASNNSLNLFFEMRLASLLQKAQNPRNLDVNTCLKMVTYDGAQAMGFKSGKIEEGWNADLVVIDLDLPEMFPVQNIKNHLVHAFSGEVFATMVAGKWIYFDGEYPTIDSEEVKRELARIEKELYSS
Method: FIG. 9A-9D. Sinefungin is a positive control compatible with the 1-Step EZ-MTase assay. (A) MTAN-based assays catabolize the methyltransferase inhibitor sinefungin (SIN). […] (C) pH-dependence of the reaction between sinefungin and TM0936. […] (D) Inhibition of the sarcosine/dimethylglycine methyltransferase by sinefungin. […] The initial methyltransfer rates were recorded at 263 nm. Further analysis provided the inhibition constant Ki (1.8±0.4 μM).

[3] = pKa from pH-dependence of fluorescence; assay type: physicochemical; conditions: 50 mM buffer series
Method: Calibration of fluorescence signal for the 8-aza-A to 8-aza-I reaction—This procedure is very similar to the one described under “Differential Extinction Coefficients (Δε) for Deaminase Reaction”. Briefly, standard solutions (240 μL) of 8-aza-adenosine (0-25 μM; 12 data points) containing 50 mM buffer (pH 5.00-9.50), 10% glycerol and 1 mM βME, were loaded into a […] black flat bottom plate. 10-μL water per well were added to one data-set (12 concentrations of 8-aza-adensoine); 10-μL TM0936 solution (24.05 μM) were added to the remaining samples (12 concentrations of 8-azaadenosine at various pH values). The loss of fluorescence (Em=360 nm) from 8-azaadenosine standard solutions (Ex=282/292 nm) where recorded with a Spectramax M5 plate reader until no change in signal could be observed.
At a same pH, the comparison between end-point deaminase reactions and reference well (TM0936 added but no 8-aza-adenosine) provided the pH-dependence of 8-azainosyl fluorescence. […] Furthermore, the comparison between end-point deaminase reactions and reference well (various 8-aza-adenosine concentrations but no TM0936 added) provided the calibration curve of fluorescence signal for the 8-aza-adenosine to 8-aza-ionisine reaction. […]

kcat (GsSDMT): 1.5 ± 0.083 s⁻¹
SMILES: CNCC(=O)O [Sarcosine, sarcosine]
pKa ([1]; methyl-amine group from sarcosine): 10.0 | pKa ([1]; sarcosine carboxylate): ≈ 2.2

pKa ([2]; 263 nm): 8.72 ± 0.09
SMILES: OC[C@H]1O[C@@H](n2cnc3c(O)ncnc32)[C@H](O)[C@@H]1O [inosine]
pKa ([1]; inosine, literature): 8.9 and 8.85

SMILES: Nc1ncnc2c1ncn2[C@@H]1O[C@H](CSCC[C@H](N)C(=O)O)[C@@H](O)[C@H]1O [SAH, S-adenosyl-L-homocysteine]
Km (deaminase TM0936; room temperature): 0.6 ± 0.2 µM | kcat (deaminase TM0936; room temperature): 7.1 ± 0.4 s⁻¹

pKa ([2]; 282 nm): 7.29 ± 0.03 | pKa ([2]; 292 nm): 7.3 ± 0.03 | pKa ([3]; pH 5.00-9.50, Ex/Em 282/360 nm): 7.5 ± 0.03 | pKa ([3]; pH 5.00-9.50, Ex/Em 292/360): 7.54 ± 0.04
SMILES: OC[C@H]1O[C@@H](n2nnc3c(O)ncnc32)[C@H](O)[C@@H]1O [8-aza-inosine]

SMILES: Nc1ncnc2c1ncn2[C@@H]1O[C@H](CO)[C@@H](O)[C@H]1O [adenosine]
deamination by TM0936, slower than that of its 8-aza analog (deaminase TM0936; 10 μM substrate, 1 nM TM0936 (FIG. 7A)): 10 fold
